In patent US20230192718A1, “BICYCLIC ENONE CARBOXYLATES AS MODULATORS OF TRANSPORTERS AND USES THEREOF” (NIROGY THERAPEUTICS, INC., priority 2018, published 2023):

Experiments:
[1] = tested on: panel of solid and haemotological tumor cell lines; assay: MTS cell proliferation assay (cytotoxicity); assay type: cell-based; conditions: 72 hours incubation, MTS readout
Method: MTS Cell Proliferation Assay
The anti-proliferation effect of MCT inhibition was investigated across a panel of solid and haemotological tumor cell lines. Cells were routinely cultured in their appropriate growth medium. On day 1, between 5,000-20,000 cells/well were plated into 96-well plates. 100 μL of phosphate buffered saline solution was added to the external wells to prevent media evaporation. Plates were incubated in growth medium overnight at 37° C. in the presence of 5% CO2. On day 2, dry weight compound stocks were dissolved to a concentration of 20 mM in 100% DMSO. Compounds were further diluted in the assay medium; 10 mM lactate medium (without glucose, pyruvate, and glutamine) or RPMI medium or appropriate medium to generate a final dose range of 10 nM to 100 μM. Growth medium in the 96-well plate was replaced with the assay medium (10 mM lactate medium or RPMI medium or appropriate medium), and compounds were added to each well in the plate at different concentrations via serial dilution or pre-prepared solutions in assay medium. Plates were then incubated at 37° C. in the presence of 5% CO2 for a further 72 hours. On day 5, 20 μL of CellTiter 96 AQ MTS reagent was added to each well and the plate was returned to the incubator for 2 hours. In case of lactate medium, the medium was replaced by 100 μL of growth medium and 20 μL of CellTiter 96 AQ MTS reagent. MTS is bioreduced by NADPH or NADH produced by dehydrogenase enzymes in metabolically active cells into a coloured formazan product that is soluble in tissue culture medium. The amount of coloured formazan product is directly proportional to the number of living cells in culture. The absorbance of the plates was read on a Synergy H4 plate reader using […] measurement wavelength. Dose response curves were plotted and IC50 values were calculated using GraphPrism. The IC50 value is equivalent to the concentration of compound that causes 50% inhibition of growth calculated from the compound treated signal to the vehicle treated signal.
MTT Cell Proliferation Assay
The MIT assay is a colorimetric assay for assessing cell viability similar to MTS assay. NAD(P)H-dependent cellular oxidoreductase enzymes may, under defined conditions, reflect the number of viable cells present. These enzymes are capable of reducing the tetrazolium dye MTT 3-(4,5-dimethylthiazol-2-yl)-2,5-diphenyltetrazolium bromide to its insoluble formazan, which has a purple color. MTT powder is dissolved in Dulbecco's Phosphate Buffered Saline, pH=7.4 (DPBS) to 5 mg/ml as stock solution. Cells and test compounds in 96-well plates were prepared containing a final volume of 100 μL/well as described in the MTS assay. The assay was performed similar to MTS assay above. […] The absorbance was read at 570 nm.

[2] = tested on: MDA-MB-231 human breast carcinoma cells; assay: Tumor xenograft model (orthotopic, NOD-SCID mice); assay type: in vivo; conditions: nine days after start of treatment
Method: In order to test the in vivo efficacy of the invention, Example 9 was tested according to the protocol of Iorns to al. [Iorns E, Drews-Elger K, Ward T M, Dean S, Clarke J, Berry D, et al. (2012) A New Mouse Model for the Study of Human Breast Cancer Metastasis. PLoS ONE 7(10): e47995. https://doi.org/10.1371/journal.pone.0047995] Twenty-eight female NOD-SCID mice (Charles River) were injected orthotopically with basal MDA-MB-231 human breast carcinoma cells into the mammary fat pads. […] Mice were dosed qd with 30 mg/kg and 75 mg/kg p.o. of Example 9. At nine days after start of treatment tumor volume was roughly 50% of control in mice dosed at 30 mg/kg and roughly 30% of control in mice dosed at 75 mg/kg.

| SMILES | IC50 [1] [µM] | tumor volume, % of control ([2]; 30 mg/kg p.o. qd) | tumor volume, % of control ([2]; 75 mg/kg p.o. qd) |
| --- | --- | --- | --- |
| CN(Cc1ccccc1)c1cc2oc(=O)c(C(=O)O)cc2s1 [Example 1, 2-(benzyl(methyl)amino)-5-oxo-5H-thieno[3,2-b]pyran-6-carboxylic acid] | < 1 | – | – |
| CN(Cc1ccc(F)cc1)c1cc2oc(=O)c(C(=O)O)cc2s1 [Example 2, 2-((4-fluorobenzyl)(methyl)amino)-5-oxo-5H-thieno[3,2-b]pyran-6-carboxylic acid] | < 1 | – | – |
| COc1cccc(C(=O)N(C)c2cc3oc(=O)c(C(=O)O)cc3s2)c1 [Example 9, 2-(3-methoxy-N-methylbenzamido)-5-oxo-5H-thieno[3,2-b]pyran-6-carboxylic acid] | < 1 | roughly 50 % of control | roughly 30 % of control |
| COc1ccccc1C(=O)N(C)c1cc2oc(=O)c(C(=O)O)cc2s1 [Example 17, 2-[(2-Methoxy-benzoyl)-methyl-amino]-5-oxo-5H-thieno[3,2-b]pyran-6-carboxylic acid] | < 1 | – | – |
